Experimental data published in patent publication EP3046573B1, “AMYLIN ANALOGUES” (Zealand Pharma A/S, priority 2013, dated 2015).
Numbered stars: 1 amine (or outer) side, 2 acyl side, 3 side chain; on linkers, the order of the positions; unused ones are H or OH. Bridge positions count the residues as written; N and C are the ends. Square brackets hold non-standard residues; d marks the D form. Peptide text beside a SMILES is read from it. * marks the point of attachment. C20 diacid = O=C(O)CCCCCCCCCCCCCCCCCCC(=O)*; Arachidoyl = CCCCCCCCCCCCCCCCCCCC(=O)*; γGlu = O=C(O)[C@H](CCC(=O)[*:2])N[*:1]; NMeI = CC[C@H](C)[C@H](NC)C(=O)O; Orn = NCCC[C@H](N)C(=O)O; Sar = CNCC(=O)O

Assay: Solubility assessment (turbidity absorbance at 325 nm)
Format: physicochemical
Details: stock 2 mg/ml diluted 1:1, ambient temperature (typically 25°C), n=1; for Solubility, Acetate buffer pH 4: 100 mM acetate buffer pH 4.0; for Solubility, Acetate buffer pH 5: 100 mM acetate buffer pH 5.0; for Solubility, Histidine buffer pH 6: 100 mM histidine buffer pH 6.0; for Solubility, Histidine buffer pH 7: 100 mM histidine buffer pH 7.0; for Solubility, Phosphate buffer pH 6: 100 mM phosphate buffer pH 6.0; for Solubility, Phosphate buffer pH 7: 100 mM phosphate buffer pH 7.0; for Solubility, Phosphate buffer pH 7.5: 100 mM phosphate buffer pH7.5
Description: A stock solution of the test peptide (2 mg/ml; determined from the weighed amount of peptide) in demineralized water adjusted to pH 2.5 with HCI was prepared, and aliquots were diluted 1:1 in 100 mM acetate buffer (pH 4.0 and pH 5.0), 100 mM histidine buffer (pH 6.0 and pH 7.0) and 100 mM phosphate buffer (pH 6.0, pH 7.0 and pH7.5), respectively, and loaded in a standard flat-bottom, non-sterile 96-well UV Microplate. The absorbance of samples (single samples, n=1) at 280 and 325 nm was measured in an absorbance-based plate reader, which was preheated to ambient temperature (typically 25°C). The turbidity absorbance criterion for a peptide solubility of ≥ 1 mg/ml was an absorbance at 325 nm of ≤ 0.02 absorbance units (which is 5 to 6 times the standard deviation of 8 buffer samples in a plate). Solubility data for peptides of the invention, pramlintide, and for a comparison pramlintide derivative denoted NN96 (see Example 5 below for details) are shown in Table 1, below. Table 1. Solubility data for compounds of the invention.

CC[C@H](C)[C@@H](C(=O)N[C@@H](CC(C)C)C(=O)N[C@@H](CO)C(=O)N[C@@H](CO)C(=O)N[C@H](C(=O)N[C@@H](CC(N)=O)C(=O)N[C@H](C(=O)NCC(=O)N[C@@H](CO)C(=O)N[C@@H](CC(N)=O)C(=O)N[C@H](C(=O)N1CCC[C@H]1C(N)=O)[C@@H](C)O)C(C)C)[C@@H](C)O)N(C)C(=O)[C@H](C)NC(=O)CN(C)C(=O)[C@H](Cc1ccccc1)NC(=O)[C@H](CC(N)=O)NC(=O)[C@H](CC(N)=O)NC(=O)[C@H](CO)NC(=O)[C@H](CO)NC(=O)[C@H](CCCNC(=N)N)NC(=O)[C@H](Cc1c[nH]cn1)NC(=O)[C@H](CC(C)C)NC(=O)[C@H](Cc1ccccc1)NC(=O)[C@H](CCC(=O)O)NC(=O)[C@H](C)NC(=O)[C@H](CC(C)C)NC(=O)[C@H](CCCNC(=N)N)NC(=O)[C@H](CCC(N)=O)NC(=O)[C@@H](NC(=O)[C@H](C)NC(=O)[C@@H]1CSSC[C@H](NC(=O)[C@H](CCCCN)NC(=O)CC[C@H](NC(=O)CCCCCCCCCCCCCCCCCCC(=O)O)C(=O)O)C(=O)N[C@@H](CC(N)=O)C(=O)N[C@@H]([C@@H](C)O)C(=O)N[C@@H](C)C(=O)N[C@@H]([C@@H](C)O)C(=O)N1)[C@@H](C)O [Compound 57, [19CD]-isoGlu-KC()NTATC()ATQRLAEFLHRSSNNF-Gly(Me)-A-Ile(Me)-LSSTNVGSNTP-NH2] ({C20 diacid-γGlu}-KCNTATCATQRLAEFLHRSSNNF[Sar]A[NMeI]LSSTNVGSNTP-NH2; disulfide 2-7)
SS (SS indicates solubility ≥ 1mg/ml): Solubility, Acetate buffer pH 4 | Solubility, Acetate buffer pH 5 | Solubility, Histidine buffer pH 6 | Solubility, Histidine buffer pH 7 | Solubility, Phosphate buffer pH 6 | Solubility, Phosphate buffer pH 7 | Solubility, Phosphate buffer pH 7.5

CC[C@H](C)[C@@H](C(=O)N[C@@H](CC(C)C)C(=O)N[C@@H](CO)C(=O)N[C@@H](CO)C(=O)N[C@H](C(=O)N[C@@H](CC(N)=O)C(=O)N[C@H](C(=O)NCC(=O)N[C@@H](CO)C(=O)N[C@@H](CC(N)=O)C(=O)N[C@H](C(=O)N1CCC[C@H]1C(N)=O)[C@@H](C)O)C(C)C)[C@@H](C)O)N(C)C(=O)[C@H](C)NC(=O)CN(C)C(=O)[C@H](Cc1ccccc1)NC(=O)[C@H](CC(N)=O)NC(=O)[C@H](CC(N)=O)NC(=O)[C@H](CO)NC(=O)[C@H](CO)NC(=O)[C@H](Cc1c[nH]cn1)NC(=O)[C@H](Cc1c[nH]cn1)NC(=O)[C@H](CC(C)C)NC(=O)[C@H](Cc1ccccc1)NC(=O)[C@H](CCC(=O)O)NC(=O)[C@H](C)NC(=O)[C@H](CC(C)C)NC(=O)[C@H](CCCNC(=N)N)NC(=O)[C@H](CCC(N)=O)NC(=O)[C@@H](NC(=O)[C@H](C)NC(=O)[C@@H]1CSSC[C@H](NC(=O)[C@H](CCCN)NC(=O)CC[C@H](NC(=O)CCCCCCCCCCCCCCCCCCC(=O)O)C(=O)O)C(=O)N[C@@H](CC(N)=O)C(=O)N[C@@H]([C@@H](C)O)C(=O)N[C@@H](C)C(=O)N[C@@H]([C@@H](C)O)C(=O)N1)[C@@H](C)O [Compound 65, [19CD]-isoGlu-Orn-C()NTATC()ATQRLAEFLHHSSNNF-Gly(Me)-A-Ile(Me)-LSSTNVGSNTP-NH2] ({C20 diacid-γGlu}-[Orn]CNTATCATQRLAEFLHHSSNNF[Sar]A[NMeI]LSSTNVGSNTP-NH2; disulfide 2-7)
SS (SS indicates solubility ≥ 1mg/ml): Solubility, Acetate buffer pH 4 | Solubility, Acetate buffer pH 5 | Solubility, Histidine buffer pH 6 | Solubility, Histidine buffer pH 7 | Solubility, Phosphate buffer pH 6 | Solubility, Phosphate buffer pH 7 | Solubility, Phosphate buffer pH 7.5

CCCCCCCCCCCCCCCCCCCC(=O)N[C@@H](CCC(=O)N[C@@H](CCCNC(=N)N)C(=O)N[C@H]1CSSC[C@@H](C(=O)N[C@@H](C)C(=O)N[C@H](C(=O)N[C@@H](CCC(N)=O)C(=O)N[C@@H](CCCNC(=N)N)C(=O)N[C@@H](CC(C)C)C(=O)N[C@@H](C)C(=O)N[C@@H](CCC(=O)O)C(=O)N[C@@H](Cc2ccccc2)C(=O)N[C@@H](CC(C)C)C(=O)N[C@@H](Cc2c[nH]cn2)C(=O)N[C@@H](CCCNC(=N)N)C(=O)N[C@@H](CO)C(=O)N[C@@H](CO)C(=O)N[C@@H](CC(N)=O)C(=O)N[C@@H](CC(N)=O)C(=O)N[C@@H](Cc2ccccc2)C(=O)N(C)CC(=O)N[C@@H](C)C(=O)N(C)[C@H](C(=O)N[C@@H](CC(C)C)C(=O)N[C@@H](CO)C(=O)N[C@@H](CO)C(=O)N[C@H](C(=O)N[C@@H](CC(N)=O)C(=O)N[C@H](C(=O)NCC(=O)N[C@@H](CO)C(=O)N[C@@H](CC(N)=O)C(=O)N[C@H](C(=O)N2CCC[C@H]2C(N)=O)[C@@H](C)O)C(C)C)[C@@H](C)O)[C@@H](C)CC)[C@@H](C)O)NC(=O)[C@H]([C@@H](C)O)NC(=O)[C@H](C)NC(=O)[C@H]([C@@H](C)O)NC(=O)[C@H](CC(N)=O)NC1=O)C(=O)O [Compound 94, [Eicosanoyl]-isoGlu-RC()NTATC()ATQRLAEFLHRSSNNF-Gly(Me)-A-Ile(Me)-LSSTNVGSNTP-NH2] ({Arachidoyl-γGlu}-RCNTATCATQRLAEFLHRSSNNF[Sar]A[NMeI]LSSTNVGSNTP-NH2; disulfide 2-7)
SS (SS indicates solubility ≥ 1mg/ml): Solubility, Acetate buffer pH 4 | Solubility, Acetate buffer pH 5 | Solubility, Histidine buffer pH 6 | Solubility, Histidine buffer pH 7 | Solubility, Phosphate buffer pH 6 | Solubility, Phosphate buffer pH 7 | Solubility, Phosphate buffer pH 7.5
